# Results published in patent US20180344715A1, “WNT/BETA-CATENIN SIGNAL TRANSDUCTION INHIBITORS AND THEIR USE IN TREATMENT OR PREVENTION OF DISEASES AND CONDITIONS LINKED WITH SAID TRANSDUCTION” (BERGEN TEKNOLOGIOVERFORING AS, priority 2015, published 2018).
# Tests used:
# MED23 and β-catenin = target: T1, MED23 and β-catenin (Homo sapiens, UniProt Q9ULK4); assay: Co-immunoprecipitation of MED23 and β-catenin; format: cell-based; details: SW480, 5 μM, 4 hours
# T1 construct: endogenous in cells; host or cells: SW480
# T1 sequence (Q9ULK4 1-1368): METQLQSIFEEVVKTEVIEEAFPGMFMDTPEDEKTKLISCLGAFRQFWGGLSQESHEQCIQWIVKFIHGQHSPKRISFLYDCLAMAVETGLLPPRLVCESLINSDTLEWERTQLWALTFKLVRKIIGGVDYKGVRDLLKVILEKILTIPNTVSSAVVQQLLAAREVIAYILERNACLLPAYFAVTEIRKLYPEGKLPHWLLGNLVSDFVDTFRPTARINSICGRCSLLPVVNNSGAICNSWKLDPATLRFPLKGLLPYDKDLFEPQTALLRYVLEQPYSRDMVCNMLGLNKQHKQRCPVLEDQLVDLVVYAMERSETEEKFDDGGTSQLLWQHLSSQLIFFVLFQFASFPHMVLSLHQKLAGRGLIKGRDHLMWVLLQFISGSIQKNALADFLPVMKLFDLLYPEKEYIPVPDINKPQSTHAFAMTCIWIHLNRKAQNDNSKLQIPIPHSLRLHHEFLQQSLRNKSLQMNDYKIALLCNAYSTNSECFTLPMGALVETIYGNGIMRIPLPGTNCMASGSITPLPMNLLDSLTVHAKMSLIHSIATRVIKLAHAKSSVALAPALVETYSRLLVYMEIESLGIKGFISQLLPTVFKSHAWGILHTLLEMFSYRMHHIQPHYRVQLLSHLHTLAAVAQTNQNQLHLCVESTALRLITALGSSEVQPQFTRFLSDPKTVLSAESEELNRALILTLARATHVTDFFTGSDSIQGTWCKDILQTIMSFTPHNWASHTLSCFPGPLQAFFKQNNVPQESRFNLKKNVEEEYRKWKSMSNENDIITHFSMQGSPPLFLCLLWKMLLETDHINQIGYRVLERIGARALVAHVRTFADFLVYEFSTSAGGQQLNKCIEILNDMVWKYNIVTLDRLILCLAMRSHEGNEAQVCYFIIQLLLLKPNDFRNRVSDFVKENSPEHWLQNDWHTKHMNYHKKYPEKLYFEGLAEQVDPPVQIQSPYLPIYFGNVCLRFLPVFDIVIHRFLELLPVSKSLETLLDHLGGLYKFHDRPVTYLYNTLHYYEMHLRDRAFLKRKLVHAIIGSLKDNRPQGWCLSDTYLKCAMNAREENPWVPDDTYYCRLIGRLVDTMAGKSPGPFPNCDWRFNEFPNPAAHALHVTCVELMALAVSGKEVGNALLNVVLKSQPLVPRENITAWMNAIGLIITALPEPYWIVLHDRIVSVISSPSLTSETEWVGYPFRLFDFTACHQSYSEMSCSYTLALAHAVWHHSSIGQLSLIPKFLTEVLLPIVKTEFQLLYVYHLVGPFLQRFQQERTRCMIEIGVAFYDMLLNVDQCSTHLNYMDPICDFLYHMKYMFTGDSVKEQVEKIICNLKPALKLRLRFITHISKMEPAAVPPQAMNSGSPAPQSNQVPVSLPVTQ
# Experimental: Co-IP was done following the protocol of Dynabeads Co-Immunoprecipitation Kit (Life Technologies, 14321D). […] After saving 2% samples for input control, cell lysates were equally divided between 3 tubes, incubated with 3 mg Dynabeads and 21 μg mouse IgG (15381, Sigma), primary antibody against MED23 (BD550429, clone D27-1805, BD Biosciences) and β-catenin (ab22656, clone 12F7, Abcam), respectively. Input controls and proteins pulled down with individual antibodies were examined by Western blotting.
# SHPRH = target: T2, SHPRH (Homo sapiens, UniProt Q149N8); assay: SHPRH stability and ubiquitination in SW480 cells (cycloheximide, MG132); format: cell-based; details: SW480, 5 μM
# T2 construct: endogenous in cells; host or cells: SW480
# Text: 2D-DIGE images of the DARTS samples. […] Location of β-catenin binding motifs of indicated genes (left) and agarose gel analysis of ChIP-PCR reactions with indicated antibodies (right). d. Western blots of the CoIP samples of SW480 cells using indicated antibodies. e. […] WT, wild type; FL, full length. g. Overexpression of SHPRH in SW480 cells increases the ubiquitination level of β-catenin. h. […] Summary of the mechanisms by which axitinib blocks Wnt/β-catenin signaling.
# Culture cells were lysed in RIPA buffer (50 mM Tris-HCl, pH 7.4, 150 mM NaCl, 1% NP-40, 0.5% sodium deoxycholate, 0.1% SDS, 1 mM EDTA) containing freshly added protease inhibitors (Roche, 11836153001). Protein lysates were resolved in Novex 10% BisTris MiniGels (Life technologies, NP0303BOX) and transferred onto PVDF membranes with Pierce 1-Step Transfer Buffer (Thermo Fisher Scientific, 84731). […] Proteins were visualized and captured by a ChemiDOC XRS system and Quantity One software (Bio-Rad Laboratories).
# Cells were harvested and re-suspended with 100 μl ice cold TBS (50 mM Tris-HCL pH 8.0, 150 mM NaCl) containing 2 μM N-Ethylmaleimide crystalline that was supplemented to all the following buffers. […] Following addition of 80 μl 2% SDS sample buffer containing 10 mM DTT (Sigma, D9779), the beads were boiled at 98° C. for 5 minutes and collected with Magnet, the supernatant was analyzed by Western blotting.
# [1] = tested on: Wnt signals (TCF-GFP reporter); assay: TCF-GFP expression assay in transgenic zebrafish embryos; format: in vivo; details: embryos treated for 2 days
# Experimental: Transgenic zebrafish harboring Tcf/Lef-miniP:dGFP reporter (line isi04) was obtained from National BioResource Project Zebrafish, Japan. Fish were kept under standard conditions and treated humanely in accordance with approved Institutional Animal Care and Use Committee of University of Bergen. For embryo experiments, embryos at 6 hpf (hours post fertilization) were cultured in 6-well plates (20 embryos per well) at 28° C. Embryos were treated with indicated chemicals and water was replenished daily. […] For TCF-GFP expression assay, embryos at 3 dpf were examined under fluorescence microscope. In both assays embryos that died during treatment were excluded from assessment.
# T2 sequence (Q149N8 whole entry): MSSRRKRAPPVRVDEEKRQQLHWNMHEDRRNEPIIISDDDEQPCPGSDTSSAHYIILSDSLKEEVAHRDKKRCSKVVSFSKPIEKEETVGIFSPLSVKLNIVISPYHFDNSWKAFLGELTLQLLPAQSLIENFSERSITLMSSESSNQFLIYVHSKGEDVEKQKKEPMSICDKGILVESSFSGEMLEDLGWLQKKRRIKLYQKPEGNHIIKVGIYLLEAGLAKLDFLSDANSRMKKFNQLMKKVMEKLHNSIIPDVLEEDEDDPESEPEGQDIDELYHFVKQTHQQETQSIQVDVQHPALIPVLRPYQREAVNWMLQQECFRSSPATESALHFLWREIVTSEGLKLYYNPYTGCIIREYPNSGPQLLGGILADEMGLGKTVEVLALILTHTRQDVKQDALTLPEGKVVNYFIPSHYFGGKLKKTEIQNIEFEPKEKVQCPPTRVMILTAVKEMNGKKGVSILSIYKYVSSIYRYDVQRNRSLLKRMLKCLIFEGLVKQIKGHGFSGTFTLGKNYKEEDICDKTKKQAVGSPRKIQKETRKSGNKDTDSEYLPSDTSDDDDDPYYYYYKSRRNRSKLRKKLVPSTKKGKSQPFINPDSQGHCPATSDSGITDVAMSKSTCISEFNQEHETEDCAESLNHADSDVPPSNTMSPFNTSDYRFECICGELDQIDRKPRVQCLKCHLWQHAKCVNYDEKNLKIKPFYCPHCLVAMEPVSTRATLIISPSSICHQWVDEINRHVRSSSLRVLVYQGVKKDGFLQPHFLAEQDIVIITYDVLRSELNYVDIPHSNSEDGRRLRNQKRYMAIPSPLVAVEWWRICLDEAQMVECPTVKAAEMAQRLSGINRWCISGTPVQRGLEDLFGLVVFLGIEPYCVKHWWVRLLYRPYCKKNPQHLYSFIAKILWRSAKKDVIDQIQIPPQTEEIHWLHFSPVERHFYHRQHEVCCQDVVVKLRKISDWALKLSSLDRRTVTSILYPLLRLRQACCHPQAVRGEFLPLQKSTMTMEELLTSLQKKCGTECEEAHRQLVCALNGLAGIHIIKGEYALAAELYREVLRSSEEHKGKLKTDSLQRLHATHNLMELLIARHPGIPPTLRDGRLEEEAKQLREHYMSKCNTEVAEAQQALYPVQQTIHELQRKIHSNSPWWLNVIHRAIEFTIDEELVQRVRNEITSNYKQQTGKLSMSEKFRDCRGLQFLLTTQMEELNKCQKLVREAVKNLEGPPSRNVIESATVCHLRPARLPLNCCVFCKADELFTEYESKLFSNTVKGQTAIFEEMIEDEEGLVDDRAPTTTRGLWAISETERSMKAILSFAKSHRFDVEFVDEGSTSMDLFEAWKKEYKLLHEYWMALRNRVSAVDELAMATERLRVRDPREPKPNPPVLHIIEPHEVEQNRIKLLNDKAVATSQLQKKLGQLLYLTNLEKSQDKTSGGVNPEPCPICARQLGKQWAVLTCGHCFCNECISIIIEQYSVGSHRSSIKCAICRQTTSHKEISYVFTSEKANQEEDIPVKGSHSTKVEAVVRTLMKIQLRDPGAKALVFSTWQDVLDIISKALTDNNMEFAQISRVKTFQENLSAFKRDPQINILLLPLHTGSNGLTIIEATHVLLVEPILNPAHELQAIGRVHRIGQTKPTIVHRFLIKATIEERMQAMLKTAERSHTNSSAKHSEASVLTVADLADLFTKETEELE
smiles,measurement,setting,value
"CNC(=O)c1ccccc1Sc1ccc2c(/C=C/c3ccccn3)n[nH]c2c1 [axitinib, N-Methyl-2-[[3-[(E)-2-pyridin-2-ylethenyl]-1H-indazol-6-yl]sulfanyl]benzamide]",endogenous association of MED23 and β-catenin,MED23 and β-catenin,disrupted
same,stability of SHPRH,"SHPRH; 6 hours, with cycloheximide",increased
same,ubiquitination level of SHPRH,"SHPRH; MG132, 6 hours",decreased
same,TCF-GFP expression in the midbrain/hindbrain boundary and fin mesenchyme,[1],decreased
